Entries after “also recorded” stand apart in the source; their conditions may differ.
What was measured:
[1] = tested on: PC3 prostate tumor xenografts; conditions: for tumor volume by the end of the treatment (mean±SD): daily i.p. 7.34 μmol/kg/day for 29 days, n=6, PBS control 1223±136 mm^3
From the text: (§1) Anti-tumor efficacy of ZD2-HZ-JAAP conjugate was also investigated using the mice bearing PC3 prostate or 4T1 breast tumor xenografts. For tumor xenografts, PC3 prostate or 4T1 breast cancer cells suspended in Matrigel-PBS were subcutaneously injected into the flank of nude mice or mammary fat pads of BALB/C mice, respectively. Tumor volumes were monitored and measured twice a week using a Vernier caliper. When the average tumor volumes reached 100 mm^3 for PC3 tumors, and 45 mm^3 for 4T1 tumors, the mice bearing tumor xenografts were randomized into PBS control, JQ1 and ZD2-HZ-JAAP treatment groups (n=6 for PC3 tumors or 5 for 4T1 tumors). Free JQ1 and ZD2-HZ-JAAP conjugates were administrated by daily intraperitoneal injection for 29 days at a dose of 7.34 μmol/kg/day. Tumor size and bodyweight were monitored twice a week. The tumor sizes were measured with Vernier calipers, and tumor volumes were calculated using the equation V=(L*W2)/2.

[2] = tested on: PC3 prostate cancer, 4T1 and MDA-MB-231 breast cancer cells; assay: cell cytotoxicity of DOX conjugates in PC3, 4T1 and MDA-MB-231 cells; assay type: cell-based; conditions: at 2.5, 5 and 10 μM; compared with doxorubicin; FIG. 11
Protocol: The reason for the lower cytotoxicity is the slow release of DOX from the ZD2-AM-DOX conjugated with an amide bond.
The cell cytotoxicity of the ZD2-PEG-HZ-DOX was tested using PC3 prostate cancer, 4T1 and MDA-MB-231 breast cancer cells at concentrations of […].

[3] = tested on: 4T1 breast tumor xenografts; assay: anti-tumor efficacy of ZD2-HZ-JAAP, 4T1 breast tumor xenografts; assay type: in vivo, BALB/C mice; conditions: daily i.p. 7.34 μmol/kg/day for 29 days; n=5; PBS control 645±240 mm^3
From the text: as §1

[4] = tested on: DLD-1-DR drug resistant colon cancer, PANC-1 and BXPC3 pancreatic cancer, CAL27, SCC4 and HSC3 head and neck cancer cells, MDA-MB-231 and 4T1 breast cancer …; assay: cell cytotoxicity of ZD2-HZ-JAAP in cancer cell panel; assay type: cell-based; conditions: after 48 hours incubation; compared with JQ1 or JAAP; FIG. 2
Protocol: FIG. 2 provides graphs showing the cell viability of different cancer cells treated with ZD2-HZ-JAAP.
The cell cytotoxicity of ZD2-HZ-JAAP was tested using DLD-1-DR drug resistant colon cancer, PANC-1 and BXPC3 pancreatic cancer, CAL27, SCC4 and HSC3 head and neck cancer cells, MDA-MB-231 and 4T1 breast cancer cells, PC3 and C4-2 prostate cancer cells.

[5] = tested on: human MDA-MB-231 triple negative breast cancer tumors; assay: in vivo anti-tumor activity of ZD2-HZ-JAAP, MDA-MB-231 tumors; design: species or system nude mice
Protocol: The in vivo anti-tumor activity of ZD2-HZ-JAAP was evaluated in the nude mice carrying human MDA-MB-231 triple negative breast cancer tumors. The ZD2-HZ-JAAP drug conjugate was administrated to the mice with human MDA-MB-231 tumors by daily i.p. injection at a dose of 4.4 μmol/kg/day for 30 days. The tumor sizes and body weights of the mice were measured twice a week. The tumor growth was also monitored using bioluminescence imaging on the day 1, 16, and 25 after drug administration, and MRI imaging on the day 7 and 28 after the drug administration. For the ZD2-HZ-JAAP treatment group the tumor growth was inhibited with average tumor size of 80 mm^3 after 30-days of drug treatment, while for the no-treatment control group the tumors were kept growing with average tumor size of 580 mm^3 after 30-days of no treatment. […] In literature, the treatment dose of JQ1 is 50 mg/kg/day or 0.11 mmol/kg/day by i.p. injection to treat the mice with tumors. The dose of ZD2-HZ-JAAP administered by the inventors is 4.4 μmol/kg/day, which is 25-times lower than JQ1 dose. […] Since ZD2-HZ-JAAP is a target-drug that is delivered and accumulated to the tumor site, which results in low toxicity for normal tissues. Target-drug delivery results in high drug concentration at tumor site, and low concentration at normal tissues with efficient killing of tumor cells and low toxicity to normal cells.

[6] = tested on: 4T1 breast tumor xenografts; conditions: i.p. 8.28 μmol/kg/week
Protocol: Anti-tumor efficacy of ZD2-HZ-DOX conjugate was investigated using the mice bearing 4T1 breast tumor xenografts. For tumor xenografts, 2×10^5 4T1 breast cancer cells suspended in Matrigel-PBS were injected into the mammary fat pads of each BALB/C mouse. Tumor volumes were monitored and measured twice a week using a Vernier caliper. When the average tumor volumes reached 100 mm^3, the BALB/C mice bearing 4T1 breast tumors were randomized into PBS control, free doxorubicin and ZD2-HZ-DOX treatment groups (n=5). Free doxorubicin and ZD2-HZ-DOX conjugates were administrated by intraperitoneal injection for 23 days at a dose of 8.28 μmol/kg/week with 3-injections per week, and 2.76 μmol/kg for each injection. Tumor size and bodyweight were monitored twice a week. The tumor sizes were measured with Vernier calipers, and tumor volumes were calculated using the equation V=(L*W2)/2.

Compound: Cc1sc2c(c1C)C(c1ccc(Cl)cc1)=N[C@@H](CC(=O)OC(C)(C)C)c1nnc(C)n1-2 [JQ1, reference compound]
- tumor volume by the end of the treatment (mean±SD) [1]: 537±170 mm^3
- suppression of tumor growth ([1]; same dose as ZD2-HZ-JAAP, 7.34 μmol/kg/day i.p.): didn't efficiently suppress tumor growth

Compound: Cc1ccc(C(Cl)(c2ccccc2)c2ccccc2Cl)cc1 (stereo not shown) [ZD2-AM-DOX]
- cell cytotoxicity [2]: lower than that of doxorubicin

Compound: Cc1ccc(C(Cl)(c2ccccc2)c2ccccc2Cl)cc1 (stereo not shown) [ZD2-HZ-JAAP]
- tumor volume by the end of the treatment (mean±SD) [3]: 46±30 mm^3
- cell cytotoxicity [4]: lower than that of JQ1 or JAAP
- tumor growth inhibition ([5]; 4.4 μmol/kg/day, 25-times lower than literature JQ1 dose): efficiently inhibited the triple-negative breast cancer tumor growth
- average tumor size ([5]; after 30 days of treatment, daily i.p. 4.4 μmol/kg/day, no-treatment control 580 mm^3): 80 mm^3
- body weight of the mice ([5]; daily i.p. 4.4 μmol/kg/day for 30 days, vs no-treatment group): kept growing; also recorded: no significant difference
- tumor volume by the end of the treatment (mean±SD) [1]: 150±80 mm^3
- survival during treatment period ([1]; mice bearing PC3 or 4T1 tumors, 29 days of treatment, 7.34 μmol/kg/day i.p.): all mice were survived
- bodyweight change relative to initial weight ([1]; mice bearing PC3 or 4T1 tumors, daily i.p. 7.34 μmol/kg/day, 29 days): ≤ 10%

Compound: COc1cccc2c1C(=O)c1c(O)c3c(c(O)c1C2=O)C[C@@](O)(C(=O)CO)C[C@@H]3O[C@H]1C[C@H](N)[C@H](O)[C@H](C)O1 [doxorubicin]
- survival ([6]; 24-day treatment period): One mouse died on day 10, and all remaining mice died on day 11
- loss of bodyweight relative to initial weight ([6]; at day 10): 25%

Reference: patent US20240252662A1, “PEPTIDE DRUG CONJUGATES SPECIFIC TO FIBRONECTIN ISOTYPES FOR CANCER THERAPY” (priority 2021, published 2024)
